Assay [1] concerns the target T1, human somatostatin receptor subtype 2 (Homo sapiens, UniProt P30874).
T1 construct: expressed in transfected cells
Put plainly: cAMP assay for SST2R (inhibition of cAMP in CHO-K1 cells). Format: cell-based. As to conditions: Table B; inhibition of cAMP via human SST2 receptor; read-out: SST2 potency. In a few lines: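 Agonism read as decrease in NKH477 (1.6 μM)-stimulated cAMP: compounds applied 20 min, 37° C, with 0.2 mM IBMX, to CHO-K1 stably expressing human SSTR2. cAMP quantified in lysates by time-resolved fluorescence (HTRF kit, 1-24 h RT), standard-curve regression, then EC50.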

The target of assay [2] is T2, human somatostatin receptor subtype 5 (Homo sapiens, UniProt P35346).
T2 construct: expressed in transfected cells
Nature of the assay: cAMP assay for SST5R (inhibition of cAMP in CHO-K1 cells). As to conditions: for EC50: inhibition of cAMP via human SST5 receptor, read-out: SST5 potency; for Fold selectivity for SST5 vs SST2: class symbols, SST5 receptor over SST2 receptor. Type of assay: cell-based. In a few lines:
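CHO-K1 cells stably expressing human SSTR5 were treated 20 min at 37 °C with compounds plus 1.6 μM NKH477 in HBSS, 0.5 mM HEPES pH 7.4, 0.1% BSA, 0.2 mM IBMX. Lysate cAMP measured by HTRF against a standard curve; EC50 from cAMP-versus-concentration plots.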

Like-named read-outs stand apart in the source and are kept apart here.

T1 sequence (P30874 whole entry): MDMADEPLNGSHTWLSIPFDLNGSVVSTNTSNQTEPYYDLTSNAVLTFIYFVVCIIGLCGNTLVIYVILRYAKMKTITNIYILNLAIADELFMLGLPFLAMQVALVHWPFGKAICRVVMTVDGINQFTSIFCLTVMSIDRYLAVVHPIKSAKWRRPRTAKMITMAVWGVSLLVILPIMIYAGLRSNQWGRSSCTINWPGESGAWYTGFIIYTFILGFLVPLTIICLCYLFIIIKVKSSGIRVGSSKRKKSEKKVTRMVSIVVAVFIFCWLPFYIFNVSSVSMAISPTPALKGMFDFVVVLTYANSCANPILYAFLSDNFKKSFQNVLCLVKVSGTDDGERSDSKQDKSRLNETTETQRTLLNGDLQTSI
T2 sequence (P35346 whole entry): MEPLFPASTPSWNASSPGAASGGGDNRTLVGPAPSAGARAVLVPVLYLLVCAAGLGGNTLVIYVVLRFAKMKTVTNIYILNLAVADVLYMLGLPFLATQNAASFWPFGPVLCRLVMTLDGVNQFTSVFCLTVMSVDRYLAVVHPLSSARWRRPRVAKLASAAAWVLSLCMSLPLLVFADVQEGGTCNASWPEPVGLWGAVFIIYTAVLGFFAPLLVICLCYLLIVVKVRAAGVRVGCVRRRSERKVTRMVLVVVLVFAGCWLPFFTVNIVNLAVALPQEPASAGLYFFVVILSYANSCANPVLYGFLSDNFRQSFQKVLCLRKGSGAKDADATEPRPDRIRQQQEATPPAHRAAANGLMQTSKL

As for `COc1ncc(C(=O)NC23CC(C2)C3)c(N2CC[C@](C)(N)C2)c1-c1cc(F)cc(F)c1` [1-130, 4-[(3S)-3-amino-3-methylpyrrolidin-1-yl]-N-{bicyclo[1.1.1]pentan-1-yl}-5-(3,5-difluorophenyl)-6-methoxypyridine-3-carboxamide], the EC50 in assay [1] was 100 to 1000 nM; in assay [2] (Table A), under 10 nM; in assay [2] (Table B), under 10 nM. In assay [2] (Table B), the “Fold selectivity for SST5 vs SST2” value is “+++ (+++=>500)”.

For the molecule `CC(NC(=O)c1cnc(C#N)c(-c2cc(F)cc(F)c2)c1N1CC[C@](C)(N)C1)c1ccon1` (stereo partly drawn) [1-132, 4-[(3S)-3-amino-3-methylpyrrolidin-1-yl]-6-cyano-5-(3,5-difluorophenyl)-N-[1-(1,2-oxazol-3-yl)ethyl]pyridine-3-carboxamide], the values for the EC50 in assay [1], in assay [2] (Table A) and in assay [2] (Table B) were over 1000 nM, under 10 nM and under 10 nM, respectively. The “Fold selectivity for SST5 vs SST2” value in assay [2] (Table B) is recorded as “+++ (+++=>500)”.

For `C[C@H](NC(=O)c1cnc(C#N)c(-c2cc(F)cc(F)c2)c1N1C[C@@H](N)[C@H](F)C1)C1CC1` [1-135, 4-[(3R,4R)-3-amino-4-fluoropyrrolidin-1-yl]-6-cyano-N-[(1S)-1-cyclopropylethyl]-5-(3,5-difluorophenyl)pyridine-3-carboxamide], the EC50 in assay [1] was 100 to 1000 nM; in assay [2] (Table A) it was under 10 nM; in assay [2] (Table B) it was under 10 nM. The “Fold selectivity for SST5 vs SST2” value in assay [2] (Table B) is “+++ (+++=>500)”.

On to `COc1ncc(C(=O)NC2CC(F)(F)C2)c(N2CC[C@](C)(N)C2)c1-c1cc(F)cc(F)c1` [1-137, 4-[(3S)-3-amino-3-methylpyrrolidin-1-yl]-N-(3,3-difluorocyclobutyl)-5-(3,5-difluorophenyl)-6-methoxypyridine-3-carboxamide], for which the EC50 in assay [1] was 100 to 1000 nM; in assay [2] (Table A) it was under 10 nM; in assay [2] (Table B), under 10 nM. The “Fold selectivity for SST5 vs SST2” value in assay [2] (Table B) is “+++ (+++=>500)”.

Consider `COc1ncc(C(=O)N[C@@H](C)C2CC2)c(N2CC[C@](C)(N)C2)c1-c1cc(F)cc(C#N)c1` [1-153, 4-[(3S)-3-amino-3-methylpyrrolidin-1-yl]-5-(3-cyano-5-fluorophenyl)-N-[(1S)-1-cyclopropylethyl]-6-methoxypyridine-3-carboxamide], for which the results for the EC50 in assay [1], in assay [2] (Table A) and in assay [2] (Table B) were 100 to 1000 nM, under 10 nM and under 10 nM, respectively. The “Fold selectivity for SST5 vs SST2” value in assay [2] (Table B) was “+++ (+++=>500)”.

For the molecule `COc1ncc(C(=O)N[C@@H](C)C2CC2)c(N2CC[C@](C)(N)C2)c1-c1cccc(OC(F)(F)F)c1` [1-154, 4-[(3S)-3-amino-3-methylpyrrolidin-1-yl]-N-[(1S)-1-cyclopropylethyl]-6-methoxy-5-[3-(trifluoromethoxy)phenyl]pyridine-3-carboxamide], the EC50 was over 1000 nM in assay [1], under 10 nM in assay [2] (Table A) and under 10 nM in assay [2] (Table B). For the same molecule, in assay [2] (Table B), the “Fold selectivity for SST5 vs SST2” value is given as “+++ (+++=>500)”.

On to `COc1cc(-c2c(C)ncc(C(=O)N[C@@H](C)C3CC3)c2N2CC[C@](C)(N)C2)ccn1` [1-157, 4-[(3S)-3-amino-3-methylpyrrolidin-1-yl]-N-[(1S)-1-cyclopropylethyl]-2′-methoxy-2-methyl-[3,4′-bipyridine]-5-carboxamide], for which the values for the EC50 in assay [1], in assay [2] (Table A) and in assay [2] (Table B) were over 1000 nM, under 10 nM and under 10 nM, respectively. Further, in assay [2] (Table B), the “Fold selectivity for SST5 vs SST2” value is on record as “+++ (+++=>500)”.

Turning to `Cc1ncc(C(=O)N[C@@H](C)C2CC2)c(N2CC[C@](C)(N)C2)c1-c1cncc(Cl)c1` [1-158, 4-[(3S)-3-amino-3-methylpyrrolidin-1-yl]-5′-chloro-N-[(1S)-1-cyclopropylethyl]-2-methyl-[3,3′-bipyridine]-5-carboxamide], the values for the EC50 in assay [1], in assay [2] (Table A) and in assay [2] (Table B) were over 1000 nM, under 10 nM and under 10 nM, respectively. Besides, in assay [2] (Table B), the “Fold selectivity for SST5 vs SST2” value is “+++ (+++=>500)”.

Consider `Cc1ncc(C(=O)N[C@@H](C)C2CC2)c(N2CC[C@](C)(N)C2)c1-c1ccnc(C(F)(F)F)c1` [1-159, 4-[(3S)-3-amino-3-methylpyrrolidin-1-yl]-N-[(1S)-1-cyclopropylethyl]-2-methyl-2′-(trifluoromethyl)-[3,4′-bipyridine]-5-carboxamide], for which the EC50 is over 1000 nM in assay [1], under 10 nM in assay [2] (Table A) and under 10 nM in assay [2] (Table B). Besides, the “Fold selectivity for SST5 vs SST2” value in assay [2] (Table B) is listed as “+++ (+++=>500)”.

Regarding `Cc1ncc(C(=O)N[C@@H](C)C2CC2)c(N2CC[C@](C)(N)C2)c1-c1cncc(F)c1` [1-160, 4-[(3S)-3-amino-3-methylpyrrolidin-1-yl]-N-[(1S)-1-cyclopropylethyl]-5′-fluoro-2-methyl-[3,3′-bipyridine]-5-carboxamide], the values for the EC50 in assay [1], in assay [2] (Table A) and in assay [2] (Table B) were 100 to 1000 nM, under 10 nM and under 10 nM, respectively. Moreover, in assay [2] (Table B), the “Fold selectivity for SST5 vs SST2” value is on record as “+++ (+++=>500)”.

With `C[C@H](NC(=O)c1cncc(-c2ccc3cnn(C)c3c2)c1N1CC[C@](C)(N)C1)C1CC1` [1-161, 4-[(3S)-3-amino-3-methylpyrrolidin-1-yl]-N-[(1S)-1-cyclopropylethyl]-5-(1-methyl-1H-indazol-6-yl)pyridine-3-carboxamide], the values for the EC50 in assay [1], in assay [2] (Table A) and in assay [2] (Table B) were over 1000 nM, under 10 nM and under 10 nM, respectively. Also, the “Fold selectivity for SST5 vs SST2” value in assay [2] (Table B) is “++ (++=100 to 499)”.

In the case of `C[C@H](NC(=O)c1cncc(-c2cccc3c2cnn3C)c1N1CC[C@](C)(N)C1)C1CC1` [1-162, 4-[(3S)-3-amino-3-methylpyrrolidin-1-yl]-N-[(1S)-1-cyclopropylethyl]-5-(1-methyl-1H-indazol-4-yl)pyridine-3-carboxamide], the EC50 in assay [1] is over 1000 nM; in assay [2] (Table A), under 10 nM; in assay [2] (Table B), under 10 nM. Moreover, in assay [2] (Table B), the “Fold selectivity for SST5 vs SST2” value is “+++ (+++=>500)”.

In the case of `C[C@H](NC(=O)c1cncc(-c2cccc3c2OC(F)(F)O3)c1N1CC[C@](C)(N)C1)C1CC1` [1-163, 4-[(3S)-3-amino-3-methylpyrrolidin-1-yl]-N-[(1S)-1-cyclopropylethyl]-5-(2,2-difluoro-2H-1,3-benzodioxol-4-yl)pyridine-3-carboxamide], the values for the EC50 in assay [1], in assay [2] (Table A) and in assay [2] (Table B) were 100 to 1000 nM, under 10 nM and under 10 nM, respectively. For the same molecule, the “Fold selectivity for SST5 vs SST2” value in assay [2] (Table B) is given as “++ (++=100 to 499)”.

Turning to `COc1ncc(C(=O)N[C@@H](C)C2CC2)c(N2CC[C@](C)(N)C2)c1-c1cc(F)cc(C(F)(F)F)c1` [1-164, 4-[(3S)-3-amino-3-methylpyrrolidin-1-yl]-N-[(1S)-1-cyclopropylethyl]-5-[3-fluoro-5-(trifluoromethyl)phenyl]-6-methoxypyridine-3-carboxamide], the EC50 was 100 to 1000 nM in assay [1], under 10 nM in assay [2] (Table A) and under 10 nM in assay [2] (Table B). Further, in assay [2] (Table B), the “Fold selectivity for SST5 vs SST2” value was “+++ (+++=>500)”.

As to `COc1ncc(C(=O)N[C@@H](C)C2CC2)c(N2CC[C@](C)(N)C2)c1-c1cccc(OC(F)F)c1` [1-165, 4-[(3S)-3-amino-3-methylpyrrolidin-1-yl]-N-[(1S)-1-cyclopropylethyl]-5-[3-(difluoromethoxy)phenyl]-6-methoxypyridine-3-carboxamide], the EC50 in assay [1] was 100 to 1000 nM; in assay [2] (Table A) it was under 10 nM; in assay [2] (Table B), under 10 nM. Moreover, the “Fold selectivity for SST5 vs SST2” value in assay [2] (Table B) is reported as “+++ (+++=>500)”.

Take `COc1ncc(C(=O)N[C@@H](C)C2CC2)c(N2CC[C@](C)(N)C2)c1-c1ccnc(C(F)(F)F)c1` [1-166, 4-[(3S)-3-amino-3-methylpyrrolidin-1-yl]-N-[(1S)-1-cyclopropylethyl]-2-methoxy-2′-(trifluoromethyl)-[3,4′-bipyridine]-5-carboxamide]: the values for the EC50 in assay [1], in assay [2] (Table A) and in assay [2] (Table B) were over 1000 nM, under 10 nM and under 10 nM, respectively. For the same molecule, in assay [2] (Table B), the “Fold selectivity for SST5 vs SST2” value is recorded as “+++ (+++=>500)”.

`COc1ncc(C(=O)N[C@@H](C)C2CC2)c(N2CC[C@](C)(N)C2)c1-c1cncc(Cl)c1` [1-167, 4-[(3S)-3-amino-3-methylpyrrolidin-1-yl]-5′-chloro-N-[(1S)-1-cyclopropylethyl]-2-methoxy-[3,3′-bipyridine]-5-carboxamide]: the values for the EC50 in assay [1], in assay [2] (Table A) and in assay [2] (Table B) were over 1000 nM, under 10 nM and under 10 nM, respectively. Also, the “Fold selectivity for SST5 vs SST2” value in assay [2] (Table B) is given as “+++ (+++=>500)”.

Regarding `C[C@H](NC(=O)c1cnc(C#N)c(-c2cccc(OC(F)F)c2)c1N1CC[C@](C)(N)C1)C(F)(F)F` [1-168, 4-[(3S)-3-amino-3-methylpyrrolidin-1-yl]-6-cyano-5-[3-(difluoromethoxy)phenyl]-N-[(2S)-1,1,1-trifluoropropan-2-yl]pyridine-3-carboxamide], the results for the EC50 in assay [1], in assay [2] (Table A) and in assay [2] (Table B) were 100 to 1000 nM, under 10 nM and under 10 nM, respectively. In addition, in assay [2] (Table B), the “Fold selectivity for SST5 vs SST2” value is recorded as “+++ (+++=>500)”.

On to `C[C@H](NC(=O)c1cnc(C#N)c(-c2ccnc(C(F)(F)F)c2)c1N1CC[C@](C)(N)C1)C(F)(F)F` [1-169, 4-[(3S)-3-amino-3-methylpyrrolidin-1-yl]-2-cyano-2′-(trifluoromethyl)-N-[(2S)-1,1,1-trifluoropropan-2-yl]-[3,4′-bipyridine]-5-carboxamide], for which the values for the EC50 in assay [1], in assay [2] (Table A) and in assay [2] (Table B) were 100 to 1000 nM, under 10 nM and under 10 nM, respectively. The “Fold selectivity for SST5 vs SST2” value in assay [2] (Table B) is given as “+++ (+++=>500)”.

(Values after patent US12600709B2, “Nonpeptide somatostatin type 5 receptor agonists and uses thereof” (Crinetics Pharmaceuticals, Inc., priority 2019, dated 2026).)
